Source: patent publication US9693942B2 (NESTEC S.A., priority 2012, dated 2017)

Experiments:
[1] = tested on: tyrosinase; assay: Production of tyrosinase by B16 murine melanocyte cell line (immunolabeling); format: cell-based; settings: kojic acid 400 μg/mL, 48 hours, B16 cells
Description: B16 cells were cultured in DMEM 1 g/L glucose without phenol red supplemented with 10% foetal calf serum, in a humidified chamber at 37° C. and containing 5% CO2. […] The production of tyrosinase was evaluated by immunolabeling. The control condition corresponds to a culture of B16 murine melanocytes treated just with the medium, no other compound being added.

[2] = tested on: B16 murine melanocytes; assay: Production of melanin by B16 murine melanocyte cell line; format: cell-based; settings: kojic acid 400 μg/mL, 72 hours, B16 cells, total melanin (extracellular and intracellular), OD 405 nm
Description: B16 cells were cultured in DMEM 1 g/L glucose without phenol red supplemented with 10% foetal calf serum, in a humidified chamber at 37° C. and containing 5% CO2. […] This was performed in the presence or absence of NDP-MSH, an analog of MSH (melanocyte-stimulating hormone). The total quantity of melanin (extracellular and intracellular) was evaluated by measuring the optical density at 405 nm of each sample against melanin standards in the presence or absence of NDP-MSH. The control condition corresponds to a culture of B16 murine melanocytes treated just with the medium, no other compound being added.

## O=c1cc(CO)occ1O [kojic acid]
[1]
  production of tyrosinase relative to the control: decreased
[2]
  melanin production, percentage relative to the control: 48%
